Experimental findings from ChEMBL document CHEMBL3400060, “Nucleobase modified neamines with a lysine as a linker, their inhibition specificity for TAR-Tat derived from HIV-1” (Bioorg Med Chem, 2015) are described below.

Assay [1] in a line: Binding affinity to HIV-1 RRE RNA by fluorescence anisotropy. Set-up: species or system Human immunodeficiency virus 1.
Another assay deals with Nucleic Acid. As to the kind of experiment: Binding affinity to HIV-1 TAR RNA by FRET assay. Format: nucleic-acid assay, Human immunodeficiency virus 1.

`NCCCC[C@H](N)C(=O)NC[C@H]1O[C@H](O[C@H]2[C@H](O)[C@@H](O)[C@H](N)C[C@@H]2N)[C@H](N)[C@@H](O)[C@@H]1O` registered a Kd in assay [1] of 5700 nM.

As to `Nc1ncnc2c1ncn2CC(=O)NCCCC[C@H](N)C(=O)NC[C@H]1O[C@H](O[C@H]2[C@H](O)[C@@H](O)[C@H](N)C[C@@H]2N)[C@H](N)[C@@H](O)[C@@H]1O`, the results for the Kd (at Nucleic Acid; in assay [1]) were 740 nM and 570 nM, respectively.

Regarding `Nc1ccn(CC(=O)NCCCC[C@H](N)C(=O)NC[C@H]2O[C@H](O[C@H]3[C@H](O)[C@@H](O)[C@H](N)C[C@@H]3N)[C@H](N)[C@@H](O)[C@@H]2O)c(=O)n1`, the Kd was determined as 1400 nM at Nucleic Acid and 640 nM in assay [1].

As to `Nc1nc2c(ncn2CC(=O)NCCCC[C@H](N)C(=O)NC[C@H]2O[C@H](O[C@H]3[C@H](O)[C@@H](O)[C@H](N)C[C@@H]3N)[C@H](N)[C@@H](O)[C@@H]2O)c(=O)[nH]1`, the Kd on Nucleic Acid was 240 nM; in assay [1] it was 530 nM.

With `Cc1cn(CC(=O)NCCCC[C@H](N)C(=O)NC[C@H]2O[C@H](O[C@H]3[C@H](O)[C@@H](O)[C@H](N)C[C@@H]3N)[C@H](N)[C@@H](O)[C@@H]2O)c(=O)[nH]c1=O`, the Kd at Nucleic Acid turned out to be 860 nM; in assay [1], 570 nM.

The compound `NC[C@H]1O[C@H](O[C@H]2[C@H](O)[C@@H](O)[C@H](N)C[C@@H]2N)[C@H](N)[C@@H](O)[C@@H]1O` [NEAMINE] yielded a Kd in assay [1] of 5400 nM.
